Data published in patent publication EP0273990B1, “Novel organic peroxides and their use in the preparation of epoxide groups containing (co)polymers” (AKZO N.V., priority 1986, dated 1988).

Conditions: half-life period of decomposition 10 hours; 0,1 M solution in chlorobenzene

C=CC(C)(C)OOC(C)(C)c1ccccc1 [peroxide 3, α-(2-methyl-3-buten-2-ylperoxy)isopropylbenzene]
Temperature (°C) for t½ of 10 hours: 106 °C
